These results are taken from US8258160B2, “SCD1 inhibitors triazole and tetrazole compounds” (Novartis AG, priority 2006, dated 2012).

On to `Cc1nc(-c2cn(Cc3ccc(F)cc3)nn2)sc1C(=O)NCc1ccccc1` [Example 1.2, N-benzyl-2-(1-(4-fluorobenzyl)-1H-1,2,3-triazol-4-yl)-4-methylthiazole-5-carboxamide], for which the melting point was 114 to 115 °C. The compound `Cc1nc(-c2cn(Cc3ccc(C(F)(F)F)cc3)nn2)sc1C(=O)NCc1ccccc1` [Example 1.3, N-benzyl-4-methyl-2-(1-(4-(trifluoromethyl)benzyl)-1H-1,2,3-triazol-4-yl)thiazole-5-carboxamide] had a melting point of 131 to 132 °C. Take `Cc1nc(-c2cn(Cc3ccccc3)nn2)sc1C(=O)NCc1cccnc1` [Example 4, 2-(1-benzyl-1H-1,2,3-triazol-4-yl)-4-methyl-N-(pyridin-3-ylmethyl)thiazole-5-carboxamide]: the melting point was in the range of 212 to 213 °C. `Cc1nc(-c2cn(Cc3ccc(F)cc3)nn2)sc1C(=O)NCc1cccnc1` [Example 4.1, 2-(1-(4-fluorobenzyl)-1H-1,2,3-triazol-4-yl)-4-methyl-N-(pyridin-3-ylmethyl)thiazole-5-carboxamide]: the melting point was 212 to 213 °C. `Cc1nc(-c2cn(Cc3ccc(C(F)(F)F)cc3)nn2)sc1C(=O)NCc1cccnc1` [Example 4.2, 4-methyl-N-(pyridin-3-ylmethyl)-2-(1-(4-(trifluoromethyl)benzyl)-1H-1,2,3-triazol-4-yl)thiazole-5-carboxamide] came in with a melting point of 204 to 205 °C. `Cc1nc(-c2cn(CCC3CC3)nn2)sc1C(=O)NCc1cccnc1` [Example 4.4, 2-(1-(2-cyclopropylethyl)-1H-1,2,3-triazol-4-yl)-4-methyl-N-(pyridin-3-ylmethyl)thiazole-5-carboxamide] showed a melting point of 124 to 125 °C. For the compound `Cc1nc(-c2cn(CC3CC3)nn2)sc1C(=O)NCc1cccnc1` [Example 4.5, 2-(1-(cyclopropylmethyl)-1H-1,2,3-triazol-4-yl)-4-methyl-N-(pyridin-3-ylmethyl)thiazole-5-carboxamide], the melting point lay in the range of 140 to 141 °C. As to `Cc1nc(-c2nn[nH]n2)sc1C(=O)NCc1cccnc1` [Example 6, 4-methyl-N-(pyridin-3-ylmethyl)-2-(2H-tetrazol-5-yl)thiazole-5-carboxamide], the melting point was > 200 °C (dec.).

In turn, `Cc1nc(-c2n[nH]c(Cc3ccccc3)n2)sc1C(=O)NCc1ccccc1` [Example 8, N-benzyl-2-(5-benzyl-1H-1,2,4-triazol-3-yl)-4-methylthiazole-5-carboxamide] yielded a melting point of 235 to 237 °C. As to `Cc1cc(-c2n[nH]c(Cc3ccccc3)n2)sc1C(=O)NCc1ccccc1` [Example 9, N-benzyl-5-(5-benzyl-1H-1,2,4-triazol-3-yl)-3-methylthiophene-2-carboxamide], the melting point lay within 168 to 171 °C. `Cc1nc(-n2cc(-c3ccccc3)nn2)sc1C(=O)NCc1ccccc1` [Example 10, N-benzyl-4-methyl-2-(4-phenyl-1H-1,2,3-triazol-1-yl)thiazole-5-carboxamide] had a melting point of 175 to 178 °C. In the case of `Cc1nc(-n2cc(CCc3ccccc3)nn2)sc1C(=O)NCc1ccccc1` [Example 10.2, N-benzyl-4-methyl-2-(4-phenethyl-1H-1,2,3-triazol-1-yl)thiazole-5-carboxamide], the melting point lay in the range of 167 to 170 °C. On to `Cc1nc(-n2cc(CCCc3ccccc3)nn2)sc1C(=O)NCc1ccccc1` [Example 10.3, N-benzyl-4-methyl-2-(4-(3-phenylpropyl)-1H-1,2,3-triazol-1-yl)thiazole-5-carboxamide], for which the melting point is 94 to 97 °C.

Regarding `Cc1nc(-n2cc(COc3ccccc3)nn2)sc1C(=O)NCc1ccccc1` [Example 10.4, N-benzyl-4-methyl-2-(4-(phenoxymethyl)-1H-1,2,3-triazol-1-yl)thiazole-5-carboxamide], the melting point is 140 to 143 °C.

As for `COc1ccc(-c2cn(-c3nc(C)c(C(=O)NCc4ccccc4)s3)nn2)cc1` [Example 10.5, N-benzyl-2-(4-(4-methoxyphenyl)-1H-1,2,3-triazol-1-yl)-4-methylthiazole-5-carboxamide], the melting point was 168 to 171 °C.

With `Cc1nc(-n2cc(-c3ccccn3)nn2)sc1C(=O)NCc1ccccc1` [Example 10.6, N-benzyl-4-methyl-2-(4-(pyridin-2-yl)-1H-1,2,3-triazol-1-yl)thiazole-5-carboxamide], the melting point lay within 184 to 187 °C. Regarding `Cc1nc(-n2cc(C(O)c3ccccc3)nn2)sc1C(=O)NCc1ccccc1` (stereo not shown) [Example 10.7, N-benzyl-2-(4-(hydroxy(phenyl)methyl)-1H-1,2,3-triazol-1-yl)-4-methylthiazole-5-carboxamide], the melting point fell in the range of 143 to 146 °C. Consider `Cc1nc(-n2cc(-c3ccc(OCc4ccccc4)cc3)nn2)sc1C(=O)NCc1ccccc1` [Example 10.8, N-benzyl-2-(4-(4-(benzyloxy)phenyl)-1H-1,2,3-triazol-1-yl)-4-methylthiazole-5-carboxamide], for which the melting point was 237 to 240 °C. Compound `Cc1nc(-n2cc(-c3cccnc3)nn2)sc1C(=O)NCc1ccccc1` [Example 10.9, N-benzyl-4-methyl-2-(4-(pyridin-3-yl)-1H-1,2,3-triazol-1-yl)thiazole-5-carboxamide] registered a melting point of 117 to 119 °C. In turn, `Cc1nc(-n2cc(CNc3ccccc3)nn2)sc1C(=O)NCc1ccccc1` [Example 10.10, N-benzyl-4-methyl-2-(4-((phenylamino)methyl)-1H-1,2,3-triazol-1-yl)thiazole-5-carboxamide] showed a melting point of 159 to 162 °C. Regarding `Cc1nc(-n2cc(-c3ccsc3)nn2)sc1C(=O)NCc1ccccc1` [Example 10.11, N-benzyl-4-methyl-2-(4-(thiophen-3-yl)-1H-1,2,3-triazol-1-yl)thiazole-5-carboxamide], the melting point lay within 123 to 126 °C.

In turn, `Cc1nc(-n2cc([C@H](O)c3ccccc3)nn2)sc1C(=O)NCc1ccccc1` [Example 10.12, (R)—N-benzyl-2-(4-(hydroxy(phenyl)methyl)-1H-1,2,3-triazol-1-yl)-4-methylthiazole-5-carboxamide] returned a melting point of 146 to 149 °C. Under `Cc1nc(-n2cc(-c3ccc(F)cc3)nn2)sc1C(=O)NCc1ccccc1` [Example 10.13, N-benzyl-2-(4-(4-fluorophenyl)-1H-1,2,3-triazol-1-yl)-4-methylthiazole-5-carboxamide] stands 203 to 205 °C. On to `Cc1nc(-n2cc(C(=O)c3ccccc3)nn2)sc1C(=O)NCc1ccccc1` [Example 11, 2-(4-benzoyl-1H-1,2,3-triazol-1-yl)-N-benzyl-4-methylthiazole-5-carboxamide], for which the melting point lay within 176 to 178 °C.

Regarding `Cc1nc(-n2cc(CCCc3ccccc3)nn2)sc1C(=O)NCc1cccnc1` [Example 14, 4-methyl-2-(4-(3-phenylpropyl)-1H-1,2,3-triazol-1-yl)-N-(pyridin-3-ylmethyl)thiazole-5-carboxamide], the melting point is 108 to 110 °C. The same measure for `Cc1nc(-n2cc(CCCc3ccccc3)nn2)sc1C(=O)NCc1ccc(F)c(F)c1` [Example 14.1, N-(3,4-difluorobenzyl)-4-methyl-2-(4-(3-phenylpropyl)-1H-1,2,3-triazol-1-yl)thiazole-5-carboxamide]: 81 to 84 °C; for `Cc1nc(-n2cc(CCc3ccccc3)nn2)sc1C(=O)NCc1cccnc1` [Example 14.2, 4-methyl-2-(4-phenethyl-1H-1,2,3-triazol-1-yl)-N-(pyridin-3-ylmethyl)thiazole-5-carboxamide]: 114 to 116 °C; for `Cc1nc(-n2cc(C(=O)NCc3ccccc3)nn2)sc1C(=O)NCc1ccccc1` [Example 18, N-benzyl-2-(4-(benzylcarbamoyl)-1H-1,2,3-triazol-1-yl)-4-methylthiazole-5-carboxamide]: 178 to 180 °C. As for `Cc1nc(-n2nnc(C(=O)NCc3ccccc3)c2C)sc1C(=O)NCc1ccccc1` [Example 18.2, N-benzyl-2-(4-(benzylcarbamoyl)-5-methyl-1H-1,2,3-triazol-1-yl)-4-methylthiazole-5-carboxamide], the melting point fell in the range of 183 to 186 °C.

Compound `Cc1cc(-n2nnc(-c3ccccc3)n2)sc1C(=O)NCc1ccccc1` [Example 21, N-benzyl-3-methyl-5-(5-phenyl-2H-tetrazol-2-yl)thiophene-2-carboxamide] displayed a melting point of 155 to 158 °C. Take `Cc1cc(-c2ncn(Cc3ccc(F)cc3)n2)sc1C(=O)NCc1ccccc1` [Example 23, N-benzyl-5-(1-(4-fluorobenzyl)-1H-1,2,4-triazol-3-yl)-3-methylthiophene-2-carboxamide]: the melting point fell in the range of 128 to 130 °C.

As to `Cc1cc(-c2ncn(Cc3ccc(F)cc3)n2)sc1C(=O)NCc1cccnc1` [Example 23.1, 5-(1-(4-fluorobenzyl)-1H-1,2,4-triazol-3-yl)-3-methyl-N-(pyridin-3-ylmethyl)thiophene-2-carboxamide], the melting point lay in the range of 154 to 155 °C.

`Cc1nc(-c2cc(CCc3ccccc3)no2)sc1C(=O)NCc1ccccc1` [Example 27.1, N-benzyl-4-methyl-2-(3-phenethylisoxazol-5-yl)thiazole-5-carboxamide] had a melting point of 114 to 115 °C.

In the case of `Cc1nc(-c2cn(CC(F)(F)c3ccccc3)nn2)sc1C(=O)NCc1cccnc1` [Example 30, 2-(1-(2,2-difluoro-2-phenylethyl)-1H-1,2,3-triazol-4-yl)-4-methyl-N-(pyridin-3-ylmethyl)thiazole-5-carboxamide], the melting point was 150 to 151 °C. Compound `Cc1nc(-n2[nH]c(C)c(Cc3ccc(Cl)cc3)c2=O)sc1C(=O)NCc1cccnc1` [Example 33, 2-(4-(4-chlorobenzyl)-3-methyl-5-oxo-2,5-dihydro-1H-pyrazol-1-yl)-4-methyl-N-(pyridin-3-ylmethyl)thiazole-5-carboxamide] returned a melting point of 215 to 217 °C. Compound `Cc1nc(-c2noc(Cc3ccccc3)n2)sc1C(=O)NCc1ccccc1` [Example 34, N-benzyl-2-(5-benzyl-1,2,4-oxadiazol-3-yl)-4-methylthiazole-5-carboxamide] gave a melting point of 124 to 125 °C.

With `Cc1nc(-c2cnc(Cc3ccccc3)o2)sc1C(=O)NCc1ccccc1` [Example 36, N-benzyl-2-(2-benzyloxazol-5-yl)-4-methylthiazole-5-carboxamide], the melting point was in the range of 141 to 142 °C.

By melting point is commonly meant the temperature of the solid-liquid transition.
